From PubChem BioAssay AID330 (DTP/NCI, 2004)
Several values for one entry are separate records, joined by “and”; a condition that tells them apart may be missing. Identical values can stand only once. Toxic doses and inconclusive results are not listed. How the source made its calls: active means survival T/C of 150% or more; inactive means T/C below 125% in these data. Square brackets hold non-standard residues; d marks the D form. Peptide text beside a SMILES is read from it. * marks the point of attachment. Cbz = O=C(OCc1ccccc1)*; Nva = CCC[CH](N)C(=O)O

Tested on: P388 leukemia ip, CD2F1 mice, survival T/C
Assay: NCI In Vivo Anticancer Drug Screen. Data for tumor model P388 Leukemia (intraperitoneal) in CD2F1 (CDF1) mice
Details: endpoint: median survival time, higher = longer survival
In short: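 Mice carrying the transplanted tumor received test compound or vehicle. Survival was recorded in each group, and the value is the treated-group measurement divided by that of the vehicle-treated control group.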

[1] = dose: 60.0 mg/kg/injection, schedule: Q01DX005 (ip), vehicle: Klucel (hydroxypropylcellulose) (HPC)
[2] = dose: 120.0 mg/kg/injection, schedule: Q01DX005 (ip), vehicle: Klucel (hydroxypropylcellulose) (HPC)
[3] = dose: 240.0 mg/kg/injection, schedule: Q01DX005 (ip), vehicle: Klucel (hydroxypropylcellulose) (HPC)
[4] = dose: 50.0 mg/kg/injection, schedule: Q01DX005 (ip), vehicle: Klucel (hydroxypropylcellulose) (HPC)
[5] = dose: 100.0 mg/kg/injection, schedule: Q01DX005 (ip), vehicle: Klucel (hydroxypropylcellulose) (HPC)
[6] = dose: 200.0 mg/kg/injection, schedule: Q01DX005 (ip), vehicle: Klucel (hydroxypropylcellulose) (HPC)
[7] = dose: 50.0 mg/kg/injection, schedule: Q01DX009 (ip), vehicle: saline with Tween-80
[8] = dose: 100.0 mg/kg/injection, schedule: Q01DX009 (ip), vehicle: saline with Tween-80
[9] = dose: 200.0 mg/kg/injection, schedule: Q01DX009 (ip), vehicle: saline with Tween-80
[10] = dose: 400.0 mg/kg/injection, schedule: Q01DX009 (ip), vehicle: saline with Tween-80
[11] = dose: 50.0 mg/kg/injection, schedule: Q01DX009 (ip), vehicle: saline
[12] = dose: 100.0 mg/kg/injection, schedule: Q01DX009 (ip), vehicle: saline
[13] = dose: 200.0 mg/kg/injection, schedule: Q01DX009 (ip), vehicle: saline
[14] = dose: 50.0 mg/kg/injection, schedule: Q01DX005 (ip), vehicle: saline with Tween-80
[15] = dose: 100.0 mg/kg/injection, schedule: Q01DX005 (ip), vehicle: saline with Tween-80
[16] = dose: 200.0 mg/kg/injection, schedule: Q01DX005 (ip), vehicle: saline with Tween-80
[17] = dose: 60.0 mg/kg/injection, schedule: Q01DX005 (ip), vehicle: saline with Tween-80
[18] = dose: 120.0 mg/kg/injection, schedule: Q01DX005 (ip), vehicle: saline with Tween-80
[19] = dose: 240.0 mg/kg/injection, schedule: Q01DX005 (ip), vehicle: saline with Tween-80
[20] = dose: 100.0 mg/kg/injection, schedule: Q04DX003 (ip), vehicle: saline
[21] = dose: 200.0 mg/kg/injection, schedule: Q04DX003 (ip), vehicle: saline
[22] = dose: 400.0 mg/kg/injection, schedule: Q04DX003 (ip), vehicle: saline

Measured: T/C

NC(CSC1(c2cccc3ccccc23)c2ccccc2-c2ccccc21)C(=O)O (stereo not given)
inactive: [1] 93 % of control | [2] 90 % of control | [3] 88 % of control

O=[N+]([O-])/C=C/c1cc2c(cc1Br)OCO2
inactive: dose: 100.0 mg/kg/injection, schedule: Q04DX003 (ip), vehicle: saline with Tween-80 113 % of control | dose: 200.0 mg/kg/injection, schedule: Q04DX003 (ip), vehicle: saline with Tween-80 113 % of control

COc1ccc(CCN(C=O)c2ccc(OC)c(OC)c2)cc1OC
inactive: dose: 25.0 mg/kg/injection, schedule: Q01DX009 (ip), vehicle: other 115 % of control | dose: 50.0 mg/kg/injection, schedule: Q01DX009 (ip), vehicle: other 108 % of control | dose: 100.0 mg/kg/injection, schedule: Q01DX009 (ip), vehicle: other 102 % of control | dose: 200.0 mg/kg/injection, schedule: Q01DX009 (ip), vehicle: other 108 % of control | dose: 400.0 mg/kg/injection, schedule: Q01DX009 (ip), vehicle: other 96 % of control

O=[N+]([O-])c1cc2c(c([N+](=O)[O-])c1)OC(C(Cl)(Cl)Cl)OC2C(Cl)(Cl)Cl (stereo not given)
inactive: [4] 107 % of control | [5] 103 % of control | [6] 117 % of control

O=C(CC(c1ccccc1)C(C(=O)O)c1ccccc1)c1ccccc1 (stereo not given)
inactive: dose: 25.0 mg/kg/injection, schedule: Q01DX001 (ip), vehicle: saline with Tween-80 92 % of control | dose: 50.0 mg/kg/injection, schedule: Q01DX001 (ip), vehicle: saline with Tween-80 92 % of control | dose: 100.0 mg/kg/injection, schedule: Q01DX001 (ip), vehicle: saline with Tween-80 87 % of control | dose: 200.0 mg/kg/injection, schedule: Q01DX001 (ip), vehicle: saline with Tween-80 86 % of control

O=c1[nH]c(=S)[nH]cc1Oc1ccc(Cl)cc1Cl
inactive: [7] 94 % of control | [8] 93 % of control | [9] 95 % of control | [10] 108 % of control

CCCCCCCCOP(=O)(CC(CP(=O)(O)OC)P(=O)(O)OC)OCCCCCCCC (stereo not given)
inactive: [4] 91 % of control | [5] 94 % of control | [6] 93 % of control

CC(=O)c1ccc(C(C)=O)cc1
inactive: [11] 101 % of control | [12] 95 % of control | [13] 109 % of control

COc1cc(NC(C)CCCNC(C)C)c2ncccc2c1OC (stereo not given)
inactive: dose: 6.25 mg/kg/injection, schedule: Q01DX005 (ip), vehicle: saline 103 % of control | dose: 12.5 mg/kg/injection, schedule: Q01DX005 (ip), vehicle: saline 93 % of control | dose: 25.0 mg/kg/injection, schedule: Q01DX005 (ip), vehicle: saline 93 % of control

C[C@@H]1C(=O)OCC2=C3C[C@@H](CC[C@@]3(C)C=CC2=O)[C@H](C)C(=O)OCC2=C3C[C@H]1CC[C@@]3(C)C=CC2=O
inactive: [4] 100 % of control | [5] 101 % of control | [6] 95 % of control

COC(=O)c1ccc(CSc2ccccc2NC(=S)Nc2cccc(C(F)(F)F)c2)o1
inactive: dose: 6.25 mg/kg/injection, schedule: Q01DX005 (ip), vehicle: saline with Tween-80 104 % of control | dose: 12.5 mg/kg/injection, schedule: Q01DX005 (ip), vehicle: saline with Tween-80 100 % of control | dose: 25.0 mg/kg/injection, schedule: Q01DX005 (ip), vehicle: saline with Tween-80 98 % of control

OC(c1cc(-c2ccccc2)nc2ccc(Cl)cc12)C1CCCCN1 (stereo not given)
inactive: [14] 97 % of control | [15] 90 % of control | [16] 99 % of control

CCCC(NC(=O)OCc1ccccc1)C(=O)NC(CO)C(=O)O (stereo not given) (Cbz-[Nva]-Ser-OH; configuration not given here)
inactive: [4] 94 % of control | [5] 108 % of control | [6] 94 % of control

O=C(O)c1cccc2nc3cc4c(c(C(=O)O)c3nc12)OCO4
inactive: [17] 93 % of control | [18] 99 % of control | [19] 105 % of control

C=C1C(=O)OC2/C=C(\C)C3OC3/C=C(/C(=O)OC)C(OC(C)=O)C(OC(=O)C(C)(O)C(C)OC(C)=O)C12 (stereo not given)
inactive: dose: 1.5 mg/kg/injection, schedule: Q01DX009 (ip), vehicle: Klucel (hydroxypropylcellulose) (HPC) 114 % of control | dose: 12.0 mg/kg/injection, schedule: Q01DX009 (ip), vehicle: Klucel (hydroxypropylcellulose) (HPC) 106 % of control

Cc1cccc[n+]1CC(=O)C[n+]1ccccc1C
inactive: dose: 50.0 mg/kg/injection, schedule: Q01DX005 (ip), vehicle: saline 95 % of control | dose: 100.0 mg/kg/injection, schedule: Q01DX005 (ip), vehicle: saline 101 % of control

CCCCC(NC(C)=O)C(=O)O (stereo not given)
inactive: [7] 99 % of control and 95 % of control | [8] 98 % of control | [9] 100 % of control and 96 % of control | [10] 100 % of control

CCOC(=O)C(NC(=O)c1ccccc1)C(C)(C)SCc1ccccc1 (stereo not given)
inactive: [14] 103 % of control | [15] 101 % of control | [16] 95 % of control

O=C(O)CCCC/C=C/CCCCCCC1C=CCC1 (stereo not given)
inactive: [20] 93 % of control | [21] 98 % of control | [22] 91 % of control

CCCCSc1ccc(N=[N+]([O-])c2ccc(SCCCC)nc2SCCCC)c(SCCCC)n1
inactive: [7] 94 % of control | [8] 90 % of control | [9] 88 % of control

O=C(O)CCC(=O)NCC1CCCC(CNC(=O)CCC(=O)O)C1 (stereo not given)
inactive: dose: 50.0 mg/kg/injection, schedule: Q01DX009 (ip), vehicle: Klucel (hydroxypropylcellulose) (HPC) 96 % of control | dose: 100.0 mg/kg/injection, schedule: Q01DX009 (ip), vehicle: Klucel (hydroxypropylcellulose) (HPC) 110 % of control | dose: 200.0 mg/kg/injection, schedule: Q01DX009 (ip), vehicle: Klucel (hydroxypropylcellulose) (HPC) 101 % of control

Nc1ccc(/C=C/c2ccc(N)cc2S(=O)(=O)O)c(S(=O)(=O)O)c1
inactive: dose: 25.0 mg/kg/injection, schedule: Q01DX009 (ip), vehicle: suspension in saline 99 % of control | [11] 104 % of control | dose: 50.0 mg/kg/injection, schedule: Q01DX009 (ip), vehicle: suspension in saline 95 % of control | [12] 104 % of control | dose: 100.0 mg/kg/injection, schedule: Q01DX009 (ip), vehicle: suspension in saline 99 % of control | [13] 108 % of control | dose: 200.0 mg/kg/injection, schedule: Q01DX009 (ip), vehicle: suspension in saline 107 % of control | dose: 400.0 mg/kg/injection, schedule: Q01DX009 (ip), vehicle: saline 110 % of control

O=c1[nH]c(=O)c2c([nH]1)oc1ccccc12
inactive: [17] 102 % of control | [18] 95 % of control | [19] 98 % of control

CC(=O)Nc1cc(C)ccc1O
inactive: [8] 95 % of control | [9] 100 % of control | [10] 95 % of control

COc1ccc(C(=O)C(C)Br)c(OCc2ccccc2)c1OC (stereo not given)
inactive: [7] 107 % of control | [8] 105 % of control and 109 % of control | [9] 114 % of control and 118 % of control | [10] 110 % of control and 122 % of control

COc1cc(OC)c(C(=O)CCN(C)C)cc1OC
inactive: dose: 60.0 mg/kg/injection, schedule: Q01DX005 (ip), vehicle: saline 109 % of control | dose: 120.0 mg/kg/injection, schedule: Q01DX005 (ip), vehicle: saline 116 % of control | dose: 240.0 mg/kg/injection, schedule: Q01DX005 (ip), vehicle: saline 114 % of control

O=c1cc(CBr)c2ccccc2[nH]1
inactive: dose: 6.25 mg/kg/injection, schedule: Q01DX009 (ip), vehicle: saline with Tween-80 95 % of control | dose: 12.5 mg/kg/injection, schedule: Q01DX009 (ip), vehicle: saline with Tween-80 95 % of control | dose: 25.0 mg/kg/injection, schedule: Q01DX009 (ip), vehicle: saline with Tween-80 86 % of control

CCOC(=O)C1C(c2ccc(OC)cc2OC)c2cc3c(cc2OC1(C)N1CCCC1)OCO3 (stereo not given)
inactive: [1] 90 % of control | [2] 97 % of control | [3] 94 % of control

CCCNC12CN3CN(CN(C3)C1)C2
inactive: [20] 99 % of control | [21] 100 % of control | [22] 95 % of control
